{"source": "patent US5464825A", "about": "“Raising glutathione equivalent levels using N-acyl glutathione monoesters” (Cornell Research Foundation, Inc., priority 1994, dated 1995)", "key": {"[1]": {"conditions": "kidney, 1 hour after 10 mmol/kg i.p., fasted BSO treated mice"}, "[2]": {"conditions": "kidney, 2.5 hours after 10 mmol/kg i.p., fasted BSO treated mice"}, "[3]": {"conditions": "liver, 1 hour after 10 mmol/kg i.p., fasted BSO treated mice"}, "[4]": {"conditions": "liver, 2.5 hours after 10 mmol/kg i.p., fasted BSO treated mice"}}, "note": "Where two headings read alike, the source gives them in different places. *1 amine or outer side, *2 acyl side, *3 side chain or, on linkers, in order; H or OH if unused. Where a SMILES comes first, the peptide text is derived from it. [ ]: non-standard residue; d: D form. γGlu = O=C(O)[C@H](CCC(=O)[*:2])N[*:1];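 further: mice fasted 18 h, given 10 mM BSO in drinking water plus BSO 2 mmol/kg 13 h and 3 h before dosing, controls got 0.9% NaCl, mean ± SD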", "method": "The N-acetyl GSH monoethyl ester was used. A solution of N-acetyl GSH monoester was prepared in aseptic water. Mice weighing 18 to 25 grams, obtained from Taconic Farms, Inc., (TAC:(SWFBR)), were fasted for 18 hours before injection with NAGEE. At the time of fasting, the drinking water contains 10 mM L-buthionine-SR-sulfoximine (BSO). All mice are injected with L-buthionine-SR-sulfoximine (BSO) (2 millimoles per kilogram; intraperitoneally) 13 hours before NAGEE injection. The mice are injected again with L-buthionine-SR-sulfoxminie (BSO) (2 millimoles per kg; subcutaneously) 3 hours prior to NAGEE injection. NAGEE or GSH are administered intraperitoneally (10 mmol/kg; the pH of the solution is adjusted to about 7 with sodium hydroxide). The GSH solution also contains ethanol at 10 mmol/kg. Control mice are given equivalent volumes of 0.9% sodium chloride. The mice were then injected intraperitoneally with the N-acetyl GSH monoethyl ester in a dose of 10 millimoles per kilogram. […] Using groups of 4 or 5 mice each, values are given as means plus or minus S.D."}
{"smiles": "CCOC(=O)CNC(=O)[C@H](CS)NC(=O)CC[C@H](NC(C)=O)C(=O)O", "note": "[NAGEE, N-acetyl glutathione monoethyl ester] (Ac-[γGlu]-Cys-Gly-OEt)", "values": [{"measurement": "levels of GSH monoethyl ester, NAGEE and NAG found (in words)", "setting": "kidney, 10 mmol/kg i.p.", "value": "substantial levels"}, {"measurement": "GEE level, kidney", "setting": "[1]", "value": 0.92, "unit": "µmol/g"}, {"measurement": "GSH equivalents total, kidney", "setting": "[1]", "value": 10.51, "unit": "µmol/g"}, {"measurement": "GSH level, kidney", "setting": "[1]", "value": 1.6, "unit": "µmol/g"}, {"measurement": "NAG level, kidney", "setting": "[1]", "value": 1.43, "unit": "µmol/g"}, {"measurement": "NAGEE level, kidney", "setting": "[1]", "value": 5.54, "unit": "µmol/g"}, {"measurement": "GEE level, kidney", "setting": "[2]", "value": 0.52, "unit": "µmol/g"}, {"measurement": "GSH equivalents total, kidney", "setting": "[2]", "value": 5.67, "unit": "µmol/g"}, {"measurement": "GSH level, kidney", "setting": "[2]", "value": 2.3, "unit": "µmol/g"}, {"measurement": "NAG level, kidney", "setting": "[2]", "value": 0.79, "unit": "µmol/g"}, {"measurement": "NAGEE level, kidney", "setting": "[2]", "value": 2.10, "unit": "µmol/g"}, {"measurement": "GSH level of the kidney (in words, FIGS. 1 and 2)", "setting": "kidney, 2.5 hours after administration, 10 mmol/kg i.p.", "value": "increased substantially"}, {"measurement": "GSH level of the kidney (in words)", "setting": "kidney, at 5 hours, 10 mmol/kg i.p.", "value": "declined"}, {"measurement": "GSH mono-ethyl ester found in the liver (in words)", "setting": "liver, 10 mmol/kg i.p.", "value": "a little"}, {"measurement": "GEE level, liver", "setting": "[3]", "value": 0.18, "unit": "µmol/g"}, {"measurement": "GSH equivalents total, liver", "setting": "[3]", "value": 14.28, "unit": "µmol/g"}, {"measurement": "GSH level, liver", "setting": "[3]", "value": 0.45, "unit": "µmol/g"}, {"measurement": "NAG level, liver", "setting": "[3]", "value": 4.80, "unit": "µmol/g"}, {"measurement": "NAGEE level, liver", "setting": "[3]", "value": 8.85, "unit": "µmol/g"}, {"measurement": "GEE level, liver", "setting": "[4]", "value": 0.15, "unit": "µmol/g"}, {"measurement": "GSH equivalent total, liver", "setting": "[4]", "value": 7.17, "unit": "µmol/g"}, {"measurement": "GSH level, liver", "setting": "[4]", "value": 0.71, "unit": "µmol/g"}, {"measurement": "NAG level, liver", "setting": "[4]", "value": 3.38, "unit": "µmol/g"}, {"measurement": "NAGEE level, liver", "setting": "[4]", "value": 2.93, "unit": "µmol/g"}, {"measurement": "liver levels of N-acetyl GSH (in words)", "setting": "liver, at 1 and 2.5 hours, 10 mmol/kg i.p.", "value": "increased dramatically"}, {"measurement": "liver levels of GSH (in words)", "setting": "liver, at 2.5 hours, 10 mmol/kg i.p.", "value": "increased moderately"}]}
{"smiles": "N[C@@H](CCC(=O)N[C@@H](CS)C(=O)NCC(=O)O)C(=O)O", "note": "[GSH, L-γ-glutamyl-L-cysteinylglycine, reference compound]", "values": [{"measurement": "effect on glutathione levels in the kidney as compared to the controls (in words)", "setting": "kidney, 10 mmol/kg i.p., fasted BSO treated mice", "value": "only a slight effect"}, {"measurement": "GSH level, kidney", "setting": "[1]", "value": 1.9, "unit": "µmol/g"}, {"measurement": "GSH level, kidney", "setting": "[2]", "value": 1.01, "unit": "µmol/g"}, {"measurement": "GSH level, liver", "setting": "[3]", "value": 1.38, "unit": "µmol/g"}, {"measurement": "GSH level, liver", "setting": "[4]", "value": 0.45, "unit": "µmol/g"}]}
